Literature values in publication PMC4110205 (Toxicology and applied pharmacology, 2014).

Molecular target: T1, hFMO2.1 (Homo sapiens, UniProt Q99518)
T1 sequence (Q99518 1-535): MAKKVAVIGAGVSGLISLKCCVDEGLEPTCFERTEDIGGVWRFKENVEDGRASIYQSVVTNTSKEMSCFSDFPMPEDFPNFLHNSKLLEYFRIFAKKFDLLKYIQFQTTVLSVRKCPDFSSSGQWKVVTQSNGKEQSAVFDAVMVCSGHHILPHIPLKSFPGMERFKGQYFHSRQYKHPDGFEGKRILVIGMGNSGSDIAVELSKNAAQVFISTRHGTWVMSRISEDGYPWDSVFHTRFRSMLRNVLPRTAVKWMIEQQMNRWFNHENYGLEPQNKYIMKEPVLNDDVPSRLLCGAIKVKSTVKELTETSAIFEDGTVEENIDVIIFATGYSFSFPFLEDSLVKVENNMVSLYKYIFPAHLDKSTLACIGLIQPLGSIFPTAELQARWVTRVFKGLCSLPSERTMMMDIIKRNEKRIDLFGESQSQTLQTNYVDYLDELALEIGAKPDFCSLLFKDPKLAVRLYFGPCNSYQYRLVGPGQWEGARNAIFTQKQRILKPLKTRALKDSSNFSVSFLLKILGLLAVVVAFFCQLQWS
Settings: expressed hFMO2; ref Henderson et al., 2004

Row | Structure (SMILES) | Km [µM] | kcat [s⁻¹]
1 | NC(N)=S [Thiourea] | 27 | 0.85
2 | S=C1NCCN1 [ethylenethiourea] | 14 | 0.8
3 | NC(=S)Nc1ccccc1 [phenylthiourea] | 29 | 0.4
4 | NC(=S)Nc1cccc2ccccc12 [α-naphthylthiourea] | 42 | 0.55
